Measured values from patent US9713613B2, “Methods and compositions for the treatment of cancer and related hyperproliferative disorders” (priority 2007, dated 2017).

Columns and labels:
DU145 cells = assay: Oligonucleotide microarray analysis (Affymetrix) of treated DU145 cells; format: cell-based, human; parameters: dose or concentration left out as unconfirmed; details: DU145, 6 hrs
Description: Gene expression profile comparison of the drug-treated and untreated cells might reveal specific molecular pathways affected by fatostatin A. DU145 cells were treated with fatostatin A or DMSO alone, and extracted mRNA samples were analyzed by Affimetrix DNA microarrays mapping 33,000 genes (Table 1).
(§1) DU145 prostate cancer cells were treated with […] of fatostatin A or DMSO alone in the presence of 1 μg/mL of IGF1 for 6 hrs in a serum free medium, total RNA was extracted in a TRI reagent (Molecular Research Center) and further isolated by RNeasy Mini Kit (Qiagen). Purified mRNA was analyzed in Baylor College of Medicine Microarray Core Facility by Affymetrix Human Genome U133 Plus 2.0 Array consisting of almost 45,000 probe sets representing more than 39,000 transcripts derived from approximately 33,000 well-substantiated human genes (Affymetrix, Inc.).
As described herein, fatostatin inhibits the insulin-induced adipogenesis of 3T3-L1 cells and the serum-independent growth of DU145 cells (Choi et al., 2003). Gene expression profiles of drug-treated and untreated cells were compared to gain information about specific molecular pathways affected by fatostatin. DU145 cells were treated with fatostatin or DMSO alone, and the extracted mRNA samples were analyzed by Affymetrix DNA microarrays mapping 33,000 genes. Of those genes (all of which are available at the National Center for Biotechnology Information's GenBank database on the world wide web), transcription levels of 63 genes decreased at least 35% in response to fatostatin treatment (Table 5). Thirty-four of the affected genes were directly associated with fat or sterol synthesis, such as genes encoding biosynthetic enzymes, and 18 of the affected genes have been reported to be controlled by SREBPs (Horton et al., 2003). Downregulation of the affected SREBP-responsive genes was confirmed by RT-PCR experiments.
as §1, with “Oligonucleotide microarray analysis. DU145” for “DU145”, “fatostatin” for “fatostatin A”

mice (129Sv background) = assay: mice, two-week treatment, normal diet; format: in vivo, mouse; details: two weeks
Description: Food intake was similar between both groups (3.8 and 3.5 g/mouse/day for treated and control mice, respectively).
In the second protocol, two groups of male mice (n=5) were treated daily for two weeks with either 30 mg/kg fatostatin A or 10% DMSO in PBS. Food intake and body weight were measured daily. At the end of the experiments, the mice were briefly fasted for 4-5 hrs, and their blood was withdrawn for determination of serum constituents. The mice were then sacrificed, and their livers were quickly removed and ground to powder in liquid nitrogen. The powdered tissues were suspended in 10 ml of PBS containing 0.1 mM PMSF, 5 mM benzamidine, and 5 mg/mL protease inhibitor cocktail (Roche), homogenized using Polytron (3×30 Sec, at a high speed), and sonicated briefly to degrade DNA. The extracts were clarified by centrifugation at 16,000×g for 20 min. The samples were then subjected to western blot analysis using commercially available antibodies against FAS and SREBP-1. FAS and ACC activities were determined as described earlier (Mao et al., 2006).

Structure (SMILES): CCCc1cc(-c2nc(-c3ccc(C)cc3)cs2)ccn1 [Compound 1, 2-propyl-4-(4-p-tolylthiazol-2-yl)pyridine]
- transcription level (fold), famesyl-diphosphate farnesyltransferase (DU145 cells; :AA872727): 0.5359
- transcription level (fold), mevalonate (diphospho) decarboxylase (DU145 cells; A1189359): 0.3299
- transcription level (fold), stearoyl-CoA desaturase (delta-9-desaturase) (DU145 cells; AB032261): 0.5743
- transcription level (fold), Homo sapiens putative sterol reductanse SR-1 (TM7SF2) (DU145 cells; AF096304): 0.6156
- transcription level (fold), squalene epoxidase (DU145 cells; AF098865): 0.5
- Decreased fold, Homo sapiens androgen-regulated short-chain dehydrogenaseneductase 1 (DU145 cells; AF167438): 0.6598
- transcription level (fold), Homo sapiens androgen-regulated short-chain dehydrogenasereductase 1 (ARSDR1) (DU145 cells; AF167438): 0.6598
- transcription level (fold), Cullin 4B (DU145 cells; AI670819): 0.7071
- transcription level (fold), low density lipoprotein receptor (familial hypercholesterolemia) (DU145 cells; AI861942): 0.5743
- transcription level (fold), ATP citrate lyase (DU145 cells; AI971281): 0.5743
- Decreased fold, acetyl-CoA synthetase (DU145 cells; AK000162): 0.5359
- transcription level (fold), acetyl-CoA synthetase (DU145 cells; AK000162): 0.5359
- transcription level (fold), malic enzyme 1, NADP(+)-dependent, cytosolic (DU145 cells; AL049699): 0.7071
- transcription level (fold), 3-hydroxy-3-methylglutaryl-Coenzyme A reductase (DU145 cells; AL518627): 0.5
- transcription level (fold), human glucose transporter pseudogene (DU145 cells; AL565516): 0.7071
- transcription level (fold), Tubulin, beta 4 (DU145 cells; AL565749): 0.6598
- transcription level (fold), tubulin, alpha 1 (testis specific) (DU145 cells; AL575074): 0.4665
- transcription level (fold), cytochrome P450, subfamily I (dioxin-inducible), polypeptide 1 (DU145 cells; AU144855): 0.5
- transcription level (fold), lanosterol synthase (2,3-oxidosqualene-lanosterol cyclase) (DU145 cells; AW084510): 0.5743
- transcription level (fold), cytochrome b5 outer mitochondrial membrane precursor (DU145 cells; AW235051): 0.5743
- transcription level (fold), acetyl-Coenzyme A carboxylase alpha (DU145 cells; B3855983): 0.5743
- transcription level (fold), NAD(P) dependent steroid dehydrogenase-like; H105e3 (DU145 cells; BC000245): 0.4665
- transcription level (fold), acetyl-Coenzyme A acetyltransferase 2 (acetoacetyl Coenzyme A thiolase) (DU145 cells; BC000408): 0.5743
- Decreased fold, acetyl-Coenzyme A acetyltransferase 2 (DU145 cells; BC000408.1): 0.5743
- transcription level (fold), Homo sapiens, similar to tubulin, beta4 (DU145 cells; BC002654): 0.6598
- transcription level (fold), isopentenyl-diphosphate delta isomerase (DU145 cells; BC005247): 0.4665
- transcription level (fold), Homo sapiens, tubulin, beta5 (DU145 cells; BC005838): 0.6598
- transcription level (fold), insulin induced gene 1 (DU145 cells; BE300521): 0.3299
- transcription level (fold), dihydrolipoamide S-acetyltransferase (DU145 cells; BF978872): 0.6598
- transcription level (fold), DNAJ (Hsp40) homolog, subfamily B, member 4 (DU145 cells; BG252490): 0.7071
- Decreased fold, lanosterol synthase (DU145 cells; D63807.1): 0.6156
- transcription level (fold), lanosterol synthase (2,3-oxidosqualene-lanosterol cyclase) (DU145 cells; D63807.1): 0.6156
- transcription level (fold), lipin 1 (DU145 cells; D80010.1): 0.5
- Decreased fold, sterol-05-desaturase (DU145 cells; D85181.1): 0.5
- transcription level (fold), sterol-C5-desaturase (fungal ERG3, delta-5-desaturase)-like (DU145 cells; D85181.1): 0.5
- transcription level (fold), Fatty-acid-Coenzyme A ligase, long-chain 3 (DU145 cells; D89053.1): 0.7071
- transcription level (fold), prostaglandin E2 receptor (DU145 cells; L32662.1): 0.5
- Decreased fold, 3-hydroxy-3-methylglutaryl-Coenzyme A reductase (HMG CoA R) (DU145 cells; NM000859.1): 0.5
- Decreased fold, 3-hydroxy-3-methylglutaryl-Coenzyme A synthase 1 (HMG CoA S) (DU145 cells; NM 0002130.1): 0.3536
- Decreased fold, mevalonate decarboxylase (MVD) (DU145 cells; NM002461.1): 0.3299
- Decreased fold, squalene epoxidase (DU145 cells; NM 003129.2): 0.5
- Decreased fold, Insulin induced gene 1 (INSIG1) (DU145 cells; NM 005542.1): 0.3299
- Decreased fold, fatty acid desaturase 1 (DU145 cells; NM005931.1): 0.6598
- Decreased fold, emopamil-bindingprotein (sterol isomerase) (DU145 cells; NM006579.1): 0.6156
- Decreased fold, dihydrolipoamide S-acetyltransferase (DU145 cells; NM0019312): 0.6598
- transcription level (fold), cytochrome P450, subfamily I (dioxin-inducible), polypeptide 1 (DU145 cells; NM_00010): 0.3299
- transcription level (fold), mevalonate kinase (mevalonic aciduria) (DU145 cells; NM_00043): 0.5
- transcription level (fold), nuclear receptor subfamily O, group B, member 1 (DU145 cells; NM_00047): 0.5359
- transcription level (fold), low density lipoprotein receptor (familial hypercholesterolemia) (DU145 cells; NM_00052): 0.6156
- transcription level (fold), cytochrome P450, 51 (lanosterol 14-alpha-demthylase) (DU145 cells; NM_00078): 0.5359
- transcription level (fold), 3-hydroxy-3-methylglutaryl-Coenzyme A reductase (DU145 cells; NM_00085): 0.4665
- transcription level (fold), ATP citrate lyase (DU145 cells; NM_00109): 0.7071
- transcription level (fold), dehydrocholesterol reductase (DU145 cells; NM_00136): 0.5743
- transcription level (fold), fibroblast growth factor 2 (basic) (DU145 cells; NM_00200, Hs.284244): 0.5
- transcription level (fold), farnesyl diphosphate synthase (DU145 cells; NM_00200, Hs.77393): 0.6598
- transcription level (fold), 3-hydroxy-3-methylglutaryl-Coenzyme a synthase 1 (soluble) (DU145 cells; NM_00213): 0.3536
- transcription level (fold), meningioma (disrupted in balanced translocation) 1 (DU145 cells; NM_00243): 0.6156
- transcription level (fold), Homo sapiens periplakin (PPL) (DU145 cells; NM_00270): 0.6156
- transcription level (fold), H2B histone family, member Q (DU145 cells; NM_00352): 0.5
- transcription level (fold), basic heliz-loop-helix domain containing, class B, 2 (DU145 cells; NM_00367): 0.5743
- transcription level (fold), tumor necrosis factor (ligand) superfamily, member9 (DU145 cells; NM_00381): 0.5743
- Decreased fold, mevalonate kinase (MVK) (DU145 cells; NM_000431.1): 0.5
- Decreased fold, low density lipoprotein receptor (LDLR) (DU145 cells; NM_000527.2): 0.5743
- transcription level (fold), UDP-N-acetylglucosamine-2-epimerase-N-acetrylmannosamine kinase (DU145 cells; NM_00547): 0.5743
- transcription level (fold), Isocitrate dehydrogenase 1 (NADP+), soluble (DU145 cells; NM_00589): 0.7071
- transcription level (fold), fatty acid desaturase 1 (DU145 cells; NM_00593): 0.6598
- transcription level (fold), lipase, endothelial (DU145 cells; NM_00603): 0.5359
- transcription level (fold), IGF-II mRNA-binding protein 3 (DU145 cells; NM_00654): 0.4665
- transcription level (fold), emopamil-binding protein (sterol isomerase) (DU145 cells; NM_00657): 0.6156
- transcription level (fold), serum-inducible kinase (DU145 cells; NM_00662): 0.5743
- Decreased fold, acetyl-Coenzyme A carboxylase alpha (DU145 cells; NM_000664.1): 0.5743
- Decreased fold, ATP citrate lyase (DU145 cells; NM_001096.1): 0.5743
- transcription level (fold), hydroxysteroid (17-beta) dehydrogenase 7 (DU145 cells; NM_01637): 0.4665
- Decreased fold, farnesyl pyrophosphate syntlietase (DU145 cells; NM_002004.1): 0.6598
- Decreased fold, fatty-acid-Coenzyme A ligase long chain 3 (DU145 cells; NM_004457.2): 0.7071
- Decreased fold, famesyl-diphosphate famesyltransferase 1 (DU145 cells; NM_004462.1): 0.5359
- Decreased fold, stearoyl-CoA desaturase (SCD) (DU145 cells; NM_005063.1): 0.5743
- transcription level (fold), seladin-1 (DU145 cells; NM_014676): 0.6598
- Decreased fold, hydroxysteroid (17-beta) dehydrogenase 7 (DU145 cells; NM_016371.1): 0.4665
- Decreased fold, fatty-acid-Coenzyme A ligase long chain 4 (DU145 cells; NM_022977.1): 0.7071
- transcription level (fold), low density lipoprotein receptor (familial hypercholesterolemia) (DU145 cells; S70123.1): 0.7071
- transcription level (fold), ATP citrate lyase (DU145 cells; U18197.1): 0.5743
- transcription level (fold), cytochrome P450, 51 (lanosterol 14-alpha-demethylase) (DU145 cells; U40053): 0.4665
- transcription level (fold), pinin, desmosome associated protein (DU145 cells; U59479.1): 0.5359
- loss of body weight (mice (129Sv background); 30 mg/kg daily, normal diet, control no change): 10%
- decrease of FAS activity and its protein level in liver (mice (129Sv background); 30 mg/kg daily): about 30%
- food intake (mice (129Sv background); control 3.5): 3.8 g/mouse/day
